Measured values: the NIST ThermoML archive (doi:10.1021/je060271a)
Values joined by “and” are separate entries in the source; they are usually repeats but may differ in a detail not shown here. Equal values may be shown once. ± gives the expanded uncertainty stated by the source.

Conditions: 283.15 K, Liquid, Vibrating tube method

SMILES: CCCCCC(=O)OCC(COC(=O)CCCCC)(COC(=O)CCCCC)COC(=O)CCCCC [pentaerythritol tetrahexanoate]
- mass density (10919 kPa): 1010.4 ± 1.2 kg/m3
- mass density (10934 kPa): 1010.4 ± 1.2 kg/m3
- mass density (10949 kPa): 1010.4 ± 1.2 kg/m3
- mass density (10966 kPa): 1010.5 ± 1.2 kg/m3
- mass density (10983 kPa): 1010.4 ± 1.2 kg/m3
- mass density (10998 kPa): 1010.5 ± 1.2 kg/m3
- mass density (11013 kPa): 1010.5 ± 1.2 kg/m3
- mass density (11028 kPa): 1010.6 ± 1.2 kg/m3
- mass density (11046 kPa): 1010.5 ± 1.2 kg/m3
- mass density (11060 kPa): 1010.6 ± 1.2 kg/m3
- mass density (11075 kPa): 1010.4 ± 1.2 kg/m3
- mass density (11093 kPa): 1010.5 ± 1.2 kg/m3
- mass density (11108 kPa): 1010.6 ± 1.2 kg/m3
- mass density (11126 kPa): 1010.6 ± 1.2 kg/m3
- mass density (11141 kPa): 1010.5 ± 1.2 kg/m3
- mass density (11157 kPa): 1010.6 ± 1.2 kg/m3
- mass density (11173 kPa): 1010.6 ± 1.2 kg/m3
- mass density (11191 kPa): 1010.5 ± 1.2 kg/m3
- mass density (11206 kPa): 1010.6 ± 1.2 kg/m3
- mass density (11221 kPa): 1010.5 ± 1.2 kg/m3
- mass density (11237 kPa): 1010.6 ± 1.2 kg/m3
- mass density (11256 kPa): 1010.5 ± 1.2 kg/m3
- mass density (11271 kPa): 1010.6 ± 1.2 kg/m3
- mass density (11289 kPa): 1010.8 ± 1.2 kg/m3
- mass density (11304 kPa): 1010.6 ± 1.2 kg/m3
- mass density (11320 kPa): 1010.7 ± 1.2 kg/m3
- mass density (11339 kPa): 1010.7 ± 1.2 kg/m3
- mass density (11355 kPa): 1010.7 ± 1.2 kg/m3
- mass density (11370 kPa): 1010.6 ± 1.2 kg/m3
- mass density (11387 kPa): 1010.7 ± 1.2 kg/m3
- mass density (11406 kPa): 1010.7 ± 1.2 kg/m3
- mass density (11422 kPa): 1010.7 ± 1.2 kg/m3
- mass density (11438 kPa): 1010.7 ± 1.2 kg/m3
- mass density (11457 kPa): 1010.8 ± 1.2 kg/m3
- mass density (11473 kPa): 1010.8 ± 1.2 kg/m3
- mass density (11492 kPa): 1010.7 ± 1.2 kg/m3
- mass density (11508 kPa): 1010.8 ± 1.2 kg/m3
- mass density (11524 kPa): 1010.8 ± 1.2 kg/m3
- mass density (11541 kPa): 1010.7 ± 1.2 kg/m3
- mass density (11560 kPa): 1010.8 ± 1.2 kg/m3
- mass density (11577 kPa): 1010.7 ± 1.2 kg/m3
- mass density (11593 kPa): 1010.8 ± 1.2 kg/m3
- mass density (11613 kPa): 1010.9 ± 1.2 kg/m3
- mass density (11630 kPa): 1010.7 ± 1.2 kg/m3
- mass density (11649 kPa): 1010.9 ± 1.2 kg/m3
- mass density (11682 kPa): 1010.8 ± 1.2 kg/m3
- mass density (11753 kPa): 1010.9 ± 1.2 kg/m3
- mass density (11773 kPa): 1011 ± 1.2 kg/m3
- mass density (11790 kPa): 1010.9 ± 1.2 kg/m3
- mass density (11807 kPa): 1010.8 ± 1.2 kg/m3
- mass density (11828 kPa): 1011 ± 1.2 kg/m3
- mass density (11844 kPa): 1010.9 ± 1.2 kg/m3
- mass density (11862 kPa): 1010.9 ± 1.2 kg/m3
- mass density (11899 kPa): 1011 ± 1.2 kg/m3
- mass density (11916 kPa): 1011 ± 1.2 kg/m3
- mass density (11936 kPa): 1011.1 ± 1.2 kg/m3
- mass density (11954 kPa): 1010.9 ± 1.2 kg/m3
- mass density (11971 kPa): 1011 ± 1.2 kg/m3
- mass density (11988 kPa): 1011.1 ± 1.2 kg/m3
- mass density (12009 kPa): 1011 ± 1.2 kg/m3
- mass density (12027 kPa): 1011 ± 1.2 kg/m3
- mass density (12044 kPa): 1011 ± 1.2 kg/m3
- mass density (12062 kPa): 1011.2 ± 1.2 kg/m3
- mass density (12082 kPa): 1011.1 ± 1.2 kg/m3
- mass density (12099 kPa): 1011.2 ± 1.2 kg/m3
- mass density (12119 kPa): 1011.2 ± 1.2 kg/m3
- mass density (12137 kPa): 1011.1 ± 1.2 kg/m3
- mass density (12154 kPa): 1011.1 ± 1.2 kg/m3
- mass density (12171 kPa): 1011 ± 1.2 kg/m3
- mass density (12192 kPa): 1011.2 ± 1.2 kg/m3
- mass density (12209 kPa): 1011.1 ± 1.2 kg/m3
- mass density (12231 kPa): 1011.3 ± 1.2 kg/m3
- mass density (12249 kPa): 1011.2 ± 1.2 kg/m3
- mass density (12267 kPa): 1011.2 ± 1.2 kg/m3
- mass density (12290 kPa): 1011.1 ± 1.2 kg/m3
- mass density (12309 kPa): 1011.2 ± 1.2 kg/m3
- mass density (12310 kPa): 1011.2 ± 1.2 kg/m3
- mass density (12311 kPa): 1011.2 ± 1.2 kg/m3
- mass density (12312 kPa): 1011.2 ± 1.2 kg/m3 and 1011.4 ± 1.2 kg/m3
- mass density (12313 kPa): 1011.1 ± 1.2 kg/m3
- mass density (12314 kPa): 1011.2 ± 1.2 kg/m3 and 1011.3 ± 1.2 kg/m3
- mass density (12315 kPa): 1011.3 ± 1.2 kg/m3
- mass density (12316 kPa): 1011.2 ± 1.2 kg/m3
- mass density (12317 kPa): 1011.2 ± 1.2 kg/m3
- mass density (12318 kPa): 1011.3 ± 1.2 kg/m3 and 1011.2 ± 1.2 kg/m3
- mass density (12319 kPa): 1011.4 ± 1.2 kg/m3 and 1011.1 ± 1.2 kg/m3
- mass density (12320 kPa): 1011.3 ± 1.2 kg/m3 and 1011.2 ± 1.2 kg/m3
- mass density (12321 kPa): 1011.2 ± 1.2 kg/m3
- mass density (12322 kPa): 1011.3 ± 1.2 kg/m3 and 1011.2 ± 1.2 kg/m3
- mass density (12323 kPa): 1011.3 ± 1.2 kg/m3 and 1011.2 ± 1.2 kg/m3
- mass density (12324 kPa): 1011.3 ± 1.2 kg/m3
- mass density (12325 kPa): 1011.2 ± 1.2 kg/m3 and 1011.3 ± 1.2 kg/m3
- mass density (12326 kPa): 1011.2 ± 1.2 kg/m3 and 1011 ± 1.2 kg/m3
- mass density (12327 kPa): 1011.3 ± 1.2 kg/m3
- mass density (12328 kPa): 1011.2 ± 1.2 kg/m3
- mass density (12332 kPa): 1011.3 ± 1.2 kg/m3
- mass density (12334 kPa): 1011.3 ± 1.2 kg/m3
- mass density (12336 kPa): 1011.3 ± 1.2 kg/m3
- mass density (12339 kPa): 1011.4 ± 1.2 kg/m3
- mass density (12343 kPa): 1011.3 ± 1.2 kg/m3 and 1011.2 ± 1.2 kg/m3
- mass density (12348 kPa): 1011.2 ± 1.2 kg/m3
- mass density (12351 kPa): 1011.1 ± 1.2 kg/m3
- mass density (12354 kPa): 1011.4 ± 1.2 kg/m3
- mass density (12356 kPa): 1011.2 ± 1.2 kg/m3
- mass density (12359 kPa): 1011.2 ± 1.2 kg/m3
- mass density (12362 kPa): 1011.3 ± 1.2 kg/m3
- mass density (12363 kPa): 1011.2 ± 1.2 kg/m3
- mass density (12364 kPa): 1011.3 ± 1.2 kg/m3
- mass density (12366 kPa): 1011.3 ± 1.2 kg/m3
- mass density (12380 kPa): 1011.2 ± 1.2 kg/m3
- mass density (12399 kPa): 1011.3 ± 1.2 kg/m3
- mass density (12414 kPa): 1011.3 ± 1.2 kg/m3
- mass density (12431 kPa): 1011.3 ± 1.2 kg/m3
- mass density (12446 kPa): 1011.2 ± 1.2 kg/m3
- mass density (12461 kPa): 1011.2 ± 1.2 kg/m3
- mass density (12476 kPa): 1011.4 ± 1.2 kg/m3
- mass density (12494 kPa): 1011.4 ± 1.2 kg/m3
- mass density (12509 kPa): 1011.3 ± 1.2 kg/m3
- mass density (12527 kPa): 1011.3 ± 1.2 kg/m3
- mass density (12543 kPa): 1011.3 ± 1.2 kg/m3
- mass density (12558 kPa): 1011.3 ± 1.2 kg/m3
- mass density (12577 kPa): 1011.3 ± 1.2 kg/m3
- mass density (12592 kPa): 1011.4 ± 1.2 kg/m3
- mass density (12607 kPa): 1011.5 ± 1.2 kg/m3
- mass density (12622 kPa): 1011.2 ± 1.2 kg/m3
- mass density (12640 kPa): 1011.4 ± 1.2 kg/m3
- mass density (12656 kPa): 1011.5 ± 1.2 kg/m3
- mass density (12674 kPa): 1011.4 ± 1.2 kg/m3
- mass density (12689 kPa): 1011.3 ± 1.2 kg/m3
- mass density (12705 kPa): 1011.5 ± 1.2 kg/m3
- mass density (12723 kPa): 1011.3 ± 1.2 kg/m3
- mass density (12738 kPa): 1011.5 ± 1.2 kg/m3
- mass density (12754 kPa): 1011.5 ± 1.2 kg/m3
- mass density (12768 kPa): 1011.5 ± 1.2 kg/m3
- mass density (12786 kPa): 1011.4 ± 1.2 kg/m3
- mass density (12800 kPa): 1011.5 ± 1.2 kg/m3
- mass density (12814 kPa): 1011.5 ± 1.2 kg/m3
- mass density (12831 kPa): 1011.5 ± 1.2 kg/m3
- mass density (12845 kPa): 1011.5 ± 1.2 kg/m3
- mass density (12862 kPa): 1011.5 ± 1.2 kg/m3
- mass density (12875 kPa): 1011.5 ± 1.2 kg/m3
- mass density (12889 kPa): 1011.5 ± 1.2 kg/m3
- mass density (12903 kPa): 1011.5 ± 1.2 kg/m3
- mass density (12919 kPa): 1011.4 ± 1.2 kg/m3
- mass density (12933 kPa): 1011.6 ± 1.2 kg/m3
